The values below come from patent US20100075965A1, “PI3 KINASE INHIBITORS AND METHODS OF THEIR USE” (Novartis AG, priority 2006, published 2010).

Read-outs that look alike come from different tables or passages of the source. Where only a bound is given, the exact number is not on record here.

In one experiment the test system is A2780 cells. As to the kind of experiment: Viability assay in A2780 (Cell Titer Glo). Conditions: A2780 cells, read-out: A2780 Cell prolif. EC50. Type of experiment: cell-based, human. As to the method: Cell viability was assessed with Cell Titer Glo assay, Promega. Cells were seeded in TC treated 96-well plates at a density of 1,000 (A2780 cells) per well in DMEM with 10% FBS, 1% Sodium Pyruvate, and 1% Penicillin Streptomycin for a minimum of 2 hrs prior to addition of compound. Test compounds were serially diluted (3 fold) in DMSO to 500× the final concentration. For each concentration of test compound, 2 μL (500×) aliquots of compound or 100% DMSO (control) were diluted in 500 μL of culture medium to 2× final concentration then diluted 1× on the cells. Cells were incubated for 72 hrs at 37° C., 5% CO2. After which Cell Titer Glo is added to determine viable cells, the assay was performed according to the manufacturer's instruction (Promega Corporation, Madison, Wis. USA). Each experimental condition was performed in duplicate. Raw data was imported in Abase and EC50s calculated with XL-fit data analysis software and are shown in Tables 1 and 2 in the column labeled “A2780 Cell prolif. EC50”.
(In general: In ATP-based viability assays light output follows the ATP content of the culture.)

A further experiment deals with PI3 K Alpha (Homo sapiens, UniProt P42336). As to the kind of experiment: PI3 kinase phosphorylation assays (homogenous solution phase, one step solid phase, ATP depletion/KinaseGlo). The class given is biochemical. As to the method:
Compounds to be tested are dissolved in DMSO and directly distributed into 384-well flashplates at 1.25 μL per well. To start the reaction, 20 μL of 6 nM PI3 kinase are added into each well followed by 20 μL of 400 nM ATP containing a trace of radiolabeled ATP and 900 nM 1-alpha-phosphatidylinositol (PI). The plates are briefly centrifuged to remove any air gap. The reaction is performed for 15 minutes and then stopped by the addition of 20 μL of 100 mM EDTA. The stopped reaction is incubated overnight at RT to allow the lipid substrate to bind by hydrophobic interaction to the surface of the flashplate. The liquid in the wells is then washed away, and the labeled substrate is detected with scintillation counting.
This method is similar to Assay 1 except that the lipid substrate (1-alpha-phosphatidylinositol (PI)) is first dissolved in a coating buffer and incubated on flashplate at room temperature overnight to allow the lipid substrate to bind by hydrophobic interaction to the surface of the flashplate. Unbound substrate is then washed away. On the day of assay, 20 μL of 6 nM PI3 kinase are added into each well followed by 20 μL of 400 nM ATP containing trace of radiolabeled ATP. Compounds are added together with enzyme and ATP to the lipid-coated plates. The plates are briefly centrifuged to remove any air gap. The reaction is performed for two to three hours. The reaction is stopped by addition of 20 μL of 100 mM EDTA or by immediate plate washing. Phosphorylated lipid substrate is detected by scintillation counting.
Compounds to be tested are dissolved in DMSO and directly distributed into a black 384-well plate at 1.25 μL per well. To start the reaction, 25 μL of 10 nM PI3 kinase and 5 μg/mL 1-alpha-phosphatidylinositol (PI) are added into each well followed by 25 μL of 2 μM ATP. The reaction is performed until approx 50% of the ATP is depleted, and then stopped by the addition of 25 μL of KinaseGlo solution. The stopped reaction is incubated for 5 minutes and the remaining ATP is then detected via luminescence.
In general terms: In Kinase-Glo more light means more ATP remaining.

The mark [1] stands for this setting: ATP depletion assay, read-out: PI3 K Alpha IC50.

Sequence of PI3 K Alpha (P42336 whole entry): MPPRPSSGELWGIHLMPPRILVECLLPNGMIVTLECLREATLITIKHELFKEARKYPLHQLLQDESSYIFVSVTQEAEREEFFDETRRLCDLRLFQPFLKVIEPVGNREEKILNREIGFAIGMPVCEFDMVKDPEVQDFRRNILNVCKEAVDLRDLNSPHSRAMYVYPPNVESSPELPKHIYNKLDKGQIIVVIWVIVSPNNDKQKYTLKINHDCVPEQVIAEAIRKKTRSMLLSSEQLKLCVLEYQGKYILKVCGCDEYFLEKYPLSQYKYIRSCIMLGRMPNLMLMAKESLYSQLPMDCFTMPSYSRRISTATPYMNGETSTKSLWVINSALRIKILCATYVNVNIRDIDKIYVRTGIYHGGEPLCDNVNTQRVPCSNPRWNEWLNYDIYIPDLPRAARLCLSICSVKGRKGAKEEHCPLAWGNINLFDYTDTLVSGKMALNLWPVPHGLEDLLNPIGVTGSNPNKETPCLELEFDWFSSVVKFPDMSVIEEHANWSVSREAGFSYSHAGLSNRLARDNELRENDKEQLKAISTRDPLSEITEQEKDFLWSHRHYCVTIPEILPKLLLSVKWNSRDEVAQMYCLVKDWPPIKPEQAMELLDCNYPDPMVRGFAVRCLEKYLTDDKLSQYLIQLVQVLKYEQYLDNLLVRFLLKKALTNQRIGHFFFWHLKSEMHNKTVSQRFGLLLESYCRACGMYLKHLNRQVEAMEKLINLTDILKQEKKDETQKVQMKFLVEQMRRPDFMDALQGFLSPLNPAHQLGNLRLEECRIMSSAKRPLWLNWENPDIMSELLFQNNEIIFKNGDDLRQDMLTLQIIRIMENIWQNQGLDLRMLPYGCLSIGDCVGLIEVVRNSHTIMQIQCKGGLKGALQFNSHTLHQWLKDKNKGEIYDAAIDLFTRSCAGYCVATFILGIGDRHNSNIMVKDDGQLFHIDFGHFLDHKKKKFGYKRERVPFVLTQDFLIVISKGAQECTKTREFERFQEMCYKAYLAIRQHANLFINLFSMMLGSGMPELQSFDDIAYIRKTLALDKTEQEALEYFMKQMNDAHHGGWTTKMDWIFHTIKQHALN
Sequence of PI3 K Alpha (P27986 whole entry partner): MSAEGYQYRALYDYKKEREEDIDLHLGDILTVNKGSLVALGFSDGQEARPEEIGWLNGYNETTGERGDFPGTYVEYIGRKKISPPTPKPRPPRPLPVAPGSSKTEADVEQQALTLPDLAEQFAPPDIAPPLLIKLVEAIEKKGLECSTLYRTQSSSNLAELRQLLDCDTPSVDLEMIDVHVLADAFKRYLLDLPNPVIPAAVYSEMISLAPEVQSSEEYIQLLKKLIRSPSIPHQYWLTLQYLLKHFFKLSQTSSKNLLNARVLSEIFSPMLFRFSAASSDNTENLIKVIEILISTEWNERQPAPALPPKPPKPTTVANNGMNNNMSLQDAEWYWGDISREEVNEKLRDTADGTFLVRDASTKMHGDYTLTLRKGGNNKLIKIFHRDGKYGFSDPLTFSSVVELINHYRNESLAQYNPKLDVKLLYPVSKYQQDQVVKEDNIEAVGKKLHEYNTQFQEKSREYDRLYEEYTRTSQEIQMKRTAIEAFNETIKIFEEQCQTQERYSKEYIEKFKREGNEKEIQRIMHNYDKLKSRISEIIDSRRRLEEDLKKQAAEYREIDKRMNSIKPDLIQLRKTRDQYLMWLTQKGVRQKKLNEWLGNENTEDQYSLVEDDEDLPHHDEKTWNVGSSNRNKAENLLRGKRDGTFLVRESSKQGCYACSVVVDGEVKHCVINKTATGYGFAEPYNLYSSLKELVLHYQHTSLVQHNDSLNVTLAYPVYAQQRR

In general, EC50 refers to the concentration giving half of the maximal effect. In general, IC50 refers to the concentration at which inhibition is half-maximal. On to `C/C=C\c1c(NC(C)=O)nc2ccc(-c3cnc(N)c(C(F)(F)F)c3)cn12` [Example 156, (Z)-N-(6-(6-amino-5-(trifluoromethyl)pyridin-3-yl)-3-(prop-1-enyl)imidazo [1,2-a]pyridin-2-yl)acetamide], for which the EC50 in the experiment on A2780 cells (Homo sapiens) is less than 25 µM. On PI3 K Alpha (read-out: PI3K Alpha IC50), the IC50 is less than 1 µM.

As for `Nc1ncc(-c2ccc3nc(NC(=O)C4CNC4)cn3c2)cc1C(F)(F)F` [Example 256, N-(6-(6-amino-5-(trifluoromethyl)pyridin-3-yl)imidazo[1,2-a]pyridin-2-yl)azetidine-3-carboxamide], the EC50 in the experiment on A2780 cells (Homo sapiens) was less than 10 µM. Moreover, at PI3 K Alpha (read-out: PI3K Alpha IC50), the IC50 is less than 1 µM.

As to `Nc1ncc(-c2ccc3nc(NC(=O)CO[C@@H]4CCNC4)cn3c2)cc1C(F)(F)F` [Example 214, (R)-N-(6-(6-amino-5-(trifluoromethyl)pyridin-3-yl)imidazo[1,2-a]pyridin-2-yl)-2-(pyrrolidin-3-yloxy)acetamide], in the experiment with A2780 cells (Homo sapiens), the EC50 is less than 10 µM. On PI3 K Alpha (read-out: PI3K Alpha IC50), the IC50 was less than 1 µM.

In the case of `CC(=O)Nc1cn2c(C)c(-c3cnc(N)c(OCC(F)(F)F)n3)ccc2n1` [Example 112, N-(6-(5-amino-6-(2,2,2-trifluoroethoxy)pyrazin-2-yl)-5-methylimidazo [1,2-a]pyridin-2-yl)acetamide], the EC50 with A2780 cells (Homo sapiens) is less than 10 µM. Besides, on PI3 K Alpha (read-out: PI3K Alpha IC50), the IC50 is less than 1 µM.

Take `CC(=O)Nc1nc2ccc(-c3cnc(N)c(C(F)(F)F)c3)cn2c1-c1cccc(F)c1` [Example 10, N-[6-(6-Amino-5-trifluoromethyl-pyridin-3-yl)-3-(3-fluoro-phenyl)-imidazo[1,2-a]pyridin-2-yl]-acetamide]: the EC50 in the experiment on A2780 cells (Homo sapiens) was less than 25 µM. Moreover, the IC50 on PI3 K Alpha (read-out: PI3K Alpha IC50) was less than 1 µM.

In the case of `NC(=O)[C@@H]1CCCN1C(=O)Nc1cn2cc(-c3cnc(N)c(C(F)(F)F)c3)ccc2n1` [Example 285, (S)-N1-(6-(6-amino-5-(trifluoromethyl)pyridin-3-yl)imidazo[1,2-a]pyridin-2-yl)pyrrolidine-1,2-dicarboxamide], the EC50 in the experiment with A2780 cells (Homo sapiens) is less than 10 µM.

Take `Nc1ncc(-c2ccc3nc(NC(=O)N4CCC[C@H]4CO)cn3c2)cc1C(F)(F)F` [Example 232, (S)-N-(6-(6-amino-5-(trifluoromethyl)pyridin-3-yl)imidazo[1,2-a]pyridin-2-yl)-2-(hydroxymethyl) pyrrolidine-1-carboxamide]: in the experiment on A2780 cells (Homo sapiens), the EC50 is less than 10 µM. Further, the IC50 at PI3 K Alpha (read-out: PI3K Alpha IC50) was less than 1 µM.

With `CC(=O)Nc1nc2ccc(-c3cnc(N)c(C(F)(F)F)c3)cn2c1C#CCNC(=O)OC(C)(C)C` [Example 247, tert-butyl 3-(2-acetamido-6-(6-amino-5-(trifluoromethyl)pyridin-3-yl)imidazo[1,2-a]pyridin-3-yl)prop-2-ynylcarbamate], in the experiment with A2780 cells (Homo sapiens), the EC50 is less than 10 µM. Moreover, the IC50 on PI3 K Alpha (read-out: PI3K Alpha IC50) is less than 1 µM.

For `Cc1ccc(C2CCCN2C(=O)Nc2cn3cc(-c4cnc(N)c(C(F)(F)F)c4)ccc3n2)s1` (centres unmarked) [Example 180, N-(6-(6-amino-5-(trifluoromethyl)pyridin-3-yl)imidazo[1,2-a]pyridin-2-yl)-2-(5-methyithiophen-2-yl)pyrrolidine-1-carboxamide], the EC50 with A2780 cells (Homo sapiens) is less than 25 µM. In addition, the IC50 at PI3 K Alpha (read-out: PI3K Alpha IC50) is less than 1 µM.

For the molecule `Nc1ncc(-c2ccc3nc(NC(=O)C4CNC4)cn3n2)cc1Cl` [Example 142, N-(6-(6-amino-5-chloropyridin-3-yl)imidazo[1,2-b]pyridazin-2-yl)azetidine-3-carboxamide], the EC50 in the experiment with A2780 cells (Homo sapiens) is less than 25 µM. For the same molecule, the half-inhibitory concentration (IC50) on PI3 K Alpha (read-out: PI3K Alpha IC50) is less than 1 µM.

For the molecule `Nc1ncc(-c2ccc3nc(NC(=O)c4ccccn4)cn3c2)cc1C(F)(F)F` [Example 177], the EC50 in the experiment with A2780 cells (Homo sapiens) was less than 25 µM. At PI3 K Alpha (read-out: PI3K Alpha IC50), the IC50 was less than 1 µM.

On to `CC(=O)Nc1cn2cc(-c3cnc(N)c(C(=O)NCCO)n3)ccc2n1` [Example 147, 6-(2-acetamido-imidazo[1,2-a]pyridin-6-yl)-3-amino-N-(2-hydroxyethyl) pyrazine-2-carboxamide], for which the concentration for a half-maximal effect (EC50) in the experiment on A2780 cells (Homo sapiens) was less than 25 µM. The IC50 at PI3 K Alpha (read-out: PI3K Alpha IC50) is less than 1 µM.

As for `CN(C)C1CCN(C(=O)Nc2cn3cc(-c4cnc(N)c(C(F)(F)F)c4)ccc3n2)C1` (centres unmarked) [Example 248, N-(6-(6-amino-5-(trifluoromethyl)pyridin-3-yl)imidazo[1,2-a]pyridin-2-yl)-3-(dimethylamino) pyrrolidine-1-carboxamide], the concentration for a half-maximal effect (EC50) in the experiment on A2780 cells (Homo sapiens) is less than 10 µM. Further, the IC50 on PI3 K Alpha (read-out: PI3K Alpha IC50) is less than 1 µM.

In the case of `CC(=O)Nc1cn2nc(-c3cnc(N)c(OCC(F)(F)F)n3)ccc2n1` [Example 284, N-(6-(5-amino-6-(2,2,2-trifluoroethoxy)pyrazin-2-yl)imidazo[1,2-b]pyridazin-2-yl)acetamide], in the experiment on A2780 cells (Homo sapiens), the EC50 was less than 10 µM.

Regarding `CNC(=O)[C@@H]1CCCN1C(=O)Nc1cn2cc(-c3cnc(N)c(C(F)(F)F)c3)ccc2n1` [Example 281, (S)-N1-(6-(6-amino-5-(trifluoromethyl)pyridin-3-yl)imidazo[1,2-a]pyridin-2-yl)-N2-methylpyrrolidine-1,2-dicarboxamide], the EC50 with A2780 cells (Homo sapiens) was less than 25 µM.

For the molecule `COCCOc1nc(-c2ccc3nc(NC(C)=O)cn3n2)cnc1N` [Example 287, N-(6-(5-amino-6-(2-methoxyethoxy)pyrazin-2-yl)imidazo[1,2-b]pyridazin-2-yl)acetamide], the EC50 in the experiment on A2780 cells (Homo sapiens) was less than 10 µM.

For the molecule `CC(C)C(=O)Nc1cn2cc(-c3cnc(N)c(C(F)(F)F)c3)ccc2n1` [Example 278, N-(6-(6-amino-5-(trifluoromethyl)pyridin-3-yl)imidazo[1,2-a]pyridin-2-yl)isobutyramide], the EC50 in the experiment on A2780 cells (Homo sapiens) was less than 25 µM.

Regarding `CC(=O)N1CCCC[C@H]1C(=O)Nc1cn2cc(-c3cnc(N)c(C(F)(F)F)c3)ccc2n1` [Example 282, (S)-1-acetyl-N-(6-(6-amino-5-(trifluoromethyl)pyridin-3-yl)imidazo[1,2-a]pyridin-2-yl)piperidine-2-carboxamide], the concentration for a half-maximal effect (EC50) in the experiment with A2780 cells (Homo sapiens) was less than 25 µM.

For the molecule `CC(=O)Nc1cn2cc(-c3cnc(N)c(S(=O)(=O)N4CCC(Oc5ccc(F)cc5)CC4)c3)ccc2n1` [Example 267, N-(6-(6-amino-5-(4-(4-fluorophenoxy)piperidin-1-ylsulfonyl)pyridin-3-yl)imidazo[1,2-a]pyridin-2-yl)acetamide], the IC50 on PI3 K Alpha (read-out: PI3K Alpha IC50) is less than 1 µM.

Turning to `CC(=O)Nc1cn2cc(-c3cnc(N)c(OC4CCNCC4)n3)ccc2n1` [Example 280, N-(6-(5-amino-6-(piperidin-4-yloxy)pyrazin-2-yl)imidazo[1,2-a]pyridin-2-yl)acetamide], the EC50 in the experiment on A2780 cells (Homo sapiens) is less than 25 µM.

For the molecule `CC(C)(C)OC(=O)N1CCC1C(=O)Nc1cn2nc(-c3cnc(N)c(C(F)(F)F)c3)ccc2n1` (centres unmarked) [Example 279, tert-butyl 2-(6-(6-amino-5-(trifluoromethyl)pyridin-3-yl)imidazo[1,2-b]pyridazin-2-ylcarbamoyl) azetidine-1-carboxylate], in the experiment with A2780 cells, the EC50 was less than 25 µM.

In the case of `Nc1cc(C(=O)Nc2nc3ccc(-c4cnc(N)c(C(F)(F)F)c4)cc3s2)ccn1` [Example 2-36, 2-amino-N-(6-(6-amino-5-(trifluoromethyl)pyridin-3-yl)benzo[d]thiazol-2-yl)isonicotinamide], the IC50 on PI3 K Alpha (setting [1]) was less than 1 µM.

As to `CC(=O)Nc1cn2cc(-c3cnc(N)c(OC(F)F)c3)ccc2n1` [Example 263, N-(6-(6-amino-5-(difluoromethoxy)pyridin-3-yl)imidazo[1,2-a]pyridin-2-yl)acetamide], the IC50 on PI3 K Alpha (read-out: PI3K Alpha IC50) is less than 1 µM.

Take `CC(=O)Nc1cn2cc(-c3cnc(N)c(Oc4cccc(F)c4)n3)cc(F)c2n1` [Example 261, N-(6-(5-amino-6-(3-fluorophenoxy)pyrazin-2-yl)-8-fluoroimidazo [1,2-a]pyridin-2-yl)acetamide]: on PI3 K Alpha (read-out: PI3K Alpha IC50), the IC50 was less than 1 µM.

With `CC(=O)Nc1nc2ccc(-c3ccc(NC4CCNCC4)nc3)cc2s1` [Example 2-19, N-{6-[6-(Piperidin-4-ylamino)-pyridin-3-yl]-benzothiazol-2-yl}-acetamide], the IC50 at PI3 K Alpha (setting [1]) is less than 1 µM.

Take `CCN1CCC(Oc2nc(-c3ccc4nc(NC(C)=O)cn4c3)cnc2N)CC1` [Example 286, N-(6-(5-amino-6-(1-ethylpiperidin-4-yloxy)pyrazin-2-yl)imidazo[1,2-a]pyridin-2-yl)acetamide]: the EC50 with A2780 cells (Homo sapiens) was less than 10 µM.
